# Test results published in US9000017B2, “Combinations of imazalil and silver compounds” (Janssen Pharmaceutica NV, priority 2006, dated 2015).
# Where two headings read alike, the source gives them in different places.
# Tests used:
# Test in all cases: Poison Plate Assay
# Format in all cases: cell-based
# Penicillium purpurogenum = Penicillium purpurogenum CBS 170.60, ppm total active ingredient, PDA, 22° C., two weeks
# Protocol: (§1) [table] […] [table] MIC values (minimum inhibitory concentration in ppm total active ingredient) were noted and synergy was calculated using the Synergy Index method described by Kull et al. (Kull, […], and R. L. Mayer (1961) “Mixtures of quaternary ammonium compounds and long-chain fatty acids as antifungal agents” Applied Microbiology 9: 538-541; also see Zwart Voorspuij, A. J., and […] (1957) “Some aspects of the notions additivity, synergism and antagonism in the simultaneous activity of two antibacterial agents in vitro” Arch. intern. […] Steinberg, D. C. […] Petrocci, H. A. Green, and J. J. Merianos (1977) “Antimicrobial composition” U.S. Pat. […] MIC), • Qa is the concentration of compound A in ppm, in the mixture, which produced an end point (e.g. MIC), • QB is the concentration of compound B in ppm, acting alone, which produced an end point (e.g. MIC), • Qb is the concentration of compound B in ppm, in the mixture, which produced an end point (e.g. MIC). […] When the SI is equal to 1.0, additivity is indicated.
# Pseudomonas aeruginosa = Pseudomonas aeruginosa NCIB 8295, ppm total active ingredient, Tryptose Agar, 27° C., one week
# Protocol: as §1
# Rhodoturula rubra = settings: 336 h, Rhodoturula rubra B 52183, ppm total active ingredient, PDA, 22° C., two weeks, read-out: MIC-values in ppm (minimum inhibitory concentration)
# Protocol: as §1
# [1] = imazalil with silver perchlorate, label = % imazalil + % silver perchlorate
structure (smiles),measurement,setting,value
C=CCOC(Cn1ccnc1)c1ccc(Cl)cc1Cl (stereo not drawn) [imazalil],MIC,"Penicillium purpurogenum; CBS170, 336 h, imazalil with silver nitrate, label = % imazalil + % silver nitrate, read-out: MIC-values in ppm (minimum inhibitory concentration)",158 µg/mL
same,MIC-values in ppm (minimum inhibitory concentration),Penicillium purpurogenum; [1],158 ppm
same,MIC,"Pseudomonas aeruginosa; NCIB8295, 168 h, imazalil with silver nitrate, label = % imazalil + % silver nitrate, read-out: MIC-values in ppm (minimum inhibitory concentration)",667 µg/mL
same,MIC-values in ppm (minimum inhibitory concentration),Pseudomonas aeruginosa; [1],667 ppm
same,MIC,"Rhodoturula rubra; imazalil with silver nitrate, label = % imazalil + % silver nitrate",158 µg/mL
same,MIC,Rhodoturula rubra; [1],119 µg/mL
